Experimental data as given in patent US20090306045A1, “Inhibition of Glycogen Synthase Kinase and Methods of Treating Autoimmune or Immune Inflammatory Disease” (priority 2005, published 2009).
Entries after “also recorded” stand apart in the source; their conditions may differ.

Assays:
β-catenin [1] = experiment: Cytosolic β-catenin accumulation in human DCs (cell fractionation, Western blot); type: cell-based; settings: human DCs (not shown)
β-catenin [2] = experiment: Cytosolic β-catenin accumulation in murine DCs (cell fractionation, Western blot); type: cell-based; settings: murine immature DCs, different doses
Protocol: BMDCs were treated with either LPS or different doses of SB216763. CD11c^+ DCs were then fractionated into membrane and cytosolic fractions, followed by immunoblotting with antibodies against β-catenin (top) and E-cadherin (middle). Akt was probed as a loading control (bottom).
SB 216763 was purchased from Tocris Cookson Inc. (Ellisville, Mo.). […] Cell Culture and purification of DC, OT-I and OT-II T cells Mouse DM-derived CD11c^+ DCs were isolated using anti-CD11c-conjugated beads and columns (Miltenyi Biotech) according to the manufacturer's protocol. The resulted CD11c^+ DCs were then resuspended in the same culture media at 5-10×10^5 cells/ml; these cells were in single cell suspension and thus referred as cluster-disrupted cells. […] Cell fractionation, Immunoprecipitation and Western blotting Cells were homogenized in hypotonic buffer (10 mM HEPES-KOH pH 7.4, 1.5 mM MgCl2, 10 mM KCl, 0.5 mM DTT) with proteinase and phosphatase inhibitors by passing through 30 gauge needles for 10 times. Postnuclear fractions were centrifuged at 45,000 rpm for 45 min to separate membrane and cytosol fractions. Total cell lysates were obtained with 1% NP-40 lysis buffer (1% Nonidet P-40, 150 mM NaCl, 20 mM Tris, and ImM EDTA (pH 7.5)) supplemented with proteinase and phosphatase inhibitors.

active β-catenin = experiment: Active β-catenin by sequential immunoprecipitation and immunoblotting in BMDCs; type: cell-based; settings: bone marrow-derived DC cultures
Source text: Bone marrow-derived DC cultures were either treated with LPS, SB216763 or cluster disruption (CD). CD11c^+ cells were purified and same number of cells were used to make cell lysates as described. Cell lysates were then subject to sequential immunoprecipitation with antibodies against E-cadherin and β-catenin, followed by immunoblotting with antibodies against E-cadherin (top), active β-catenin (middle) and total β-catenin (bottom).
BMDCs were either treated with LPS or CD and cell lysates from CD11c^+ DCs were subject to sequential immunoprecipitation with antibodies against E-cadherin and β-catenin, followed by immunoblotting with antibodies against E-cadherin (top), active β-catenin (middle) and total β-catenin (bottom).
Reagents and Antibodies Rat anti-E-cadherin, mouse anti-β-catenin, mouse anti-p120 catenin were purchased from BD Transduction Laboratories (Lexington, Calif.). Both mouse anti-E-cadherin (HECD-1 and SHE78-7) and rat anti-E-cadherin (ECCD-1 and 2) monoclonal antibodies were obtained from Zymed (San Francisco, Calif.). Rat monoclonal anti-E-cadherin and rabbit polyclonal β-catenin were obtained from Sigma-Aldrich. […] Flow Cytometry Assays Cells were stained for 30 min on ice with primary antibody and if necessary secondary antibody, washed, and then evaluated on a FACSCalibur™ (Becton Dickinson). […]

DCs [3] = experiment: Cytokine and chemokine production by treated DCs; type: cell-based
Source text: The ability of the GSK3β inhibitor SB216763 to induce maturation was particularly striking. While it is possible this effect was limited to the dramatic increase in free β-catenin, GSK3β also has other targets. For example, by inhibiting GSK3β-mediated phosphorylation of NF-AT, this transcriptional activator would be more readily translocated into the nucleus, possibly synergyzing with β-catenin (Crabtree and Olson, 2002). Other potential mediators (eg Hedgehog, p53, c-myc) might also be affected (Doble and Woodgett, 2003). […] Cytokine and chemokine multiplex analysis The levels of cytokines and chemokines were measured with Luminex suspension array technology. Supernatants were collected and frozen at −80° C. For human CD34^+-derived DCs, cell culture supernatants were then analyzed using the Beadlyte cytokine assay kit (Upstate) with manufacturer's protocol. For mouse cytokines, supernatants were analyzed using the Bio-Plex cytokine assay kit and supporting reagents (BioRad) following manufacturer's procedures.

GSK3β = GSK3β (Homo sapiens, UniProt P49841); settings: cited from earlier work
GSK3β, sequence (P49841 whole entry, species assumed): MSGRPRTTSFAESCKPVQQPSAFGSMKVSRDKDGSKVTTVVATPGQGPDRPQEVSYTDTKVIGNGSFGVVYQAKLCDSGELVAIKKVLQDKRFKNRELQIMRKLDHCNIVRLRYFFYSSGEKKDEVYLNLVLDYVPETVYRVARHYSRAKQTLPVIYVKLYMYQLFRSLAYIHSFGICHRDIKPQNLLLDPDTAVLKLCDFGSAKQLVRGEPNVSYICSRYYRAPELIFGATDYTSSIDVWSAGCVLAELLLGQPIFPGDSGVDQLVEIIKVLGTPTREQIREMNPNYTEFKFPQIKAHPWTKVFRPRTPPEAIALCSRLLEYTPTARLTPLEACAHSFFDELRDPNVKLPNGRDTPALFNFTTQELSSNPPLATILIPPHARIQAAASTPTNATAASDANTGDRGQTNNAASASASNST

DCs [4] = experiment: MHC class II redistribution in DCs by immunofluorescence; type: cell-based; settings: immunofluorescence (not shown)
CD11c+ DCs = experiment: DC maturation of murine BMDCs, CD86 expression by FACS; type: cell-based, mouse
Protocol: BMDCs were prepared as described and CD11c^+ DCs were purified at day 6 and replated at 5×10^5 cells/ml.
CD11c^+ DCs after different stimuli were subject to FACS analysis.
SB 216763 was purchased from Tocris Cookson Inc. (Ellisville, Mo.). […] Flow Cytometry Assays Cells were stained for 30 min on ice with primary antibody and if necessary secondary antibody, washed, and then evaluated on a FACSCalibur™ (Becton Dickinson). […] Cell Culture and purification of DC, OT-I and OT-II T cells Mouse DM-derived CD11c^+ DCs were isolated using anti-CD11c-conjugated beads and columns (Miltenyi Biotech) according to the manufacturer's protocol. The resulted CD11c^+ DCs were then resuspended in the same culture media at 5-10×10^5 cells/ml; these cells were in single cell suspension and thus referred as cluster-disrupted cells.

Compound: Cn1cc(C2=C(c3ccc(Cl)cc3Cl)C(=O)NC2=O)c2ccccc21 [SB216763]
- accumulation of β-catenin in the cytosol (β-catenin [1]): dose-dependent accumulation of β-catenin in the cytosol
- accumulation of β-catenin in the cytosol (β-catenin [2]): dose-dependent accumulation of β-catenin in the cytosol; also recorded: Dose-dependent accumulation of cytosolic β-catenin
- activation of β-catenin (active, non-phosphorylated β-catenin) (active β-catenin): Resulted in Activation of β-Catenin
- production of inflammatory cytokines (DCs [3]): failed to induce the production of inflammatory cytokines
- formation of chemokines (eg IP10, MCP-1, MIP-α, CXCL8) (DCs [3]; compared with cluster disruption): induced the formation of the same array of chemokines as did CD
- selectivity as GSK3β inhibitor (GSK3β): selective inhibitor of GSK3β
- mature DC phenotype, MHC class II distribution (DCs [4]): MHC class II molecules redistributing from lysosomes to the plasma membrane
- effectiveness at triggering DC maturation compared with LPS and cluster disruption (CD) (CD11c+ DCs; 10 μM): nearly as effective as LPS at triggering DC maturation, and slightly more effective than CD
- mature population (percentage of cells expressing high CD86) (CD11c+ DCs; added to immature DCs, different doses): increased in a dose-dependent manner; also recorded: results in DC maturation
